Literature values in patent US20060069238A1, “Synthetic glyco-lipo-peptides as vaccines” (Biomira, Inc., priority 2002, published 2006).

Conditions: n-octanol:water, experimental database of LogKow; cited from earlier work

Structure (SMILES): Cc1c[nH]c2ccccc12 [3-methyl indole]
- LogP Exp: 2.60
